Assay results taken from PubChem BioAssay (NCI).
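Assay format: 96-well plates, 48-hour exposure. The concentration for 50% growth inhibition is given as GI50. TGI marks complete inhibition of growth.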

What was measured:
Experiment in all cases: inhibition of tumour cell growth, NCI panel, 48 h
SF-539 CNS = system: SF-539 CNS
SN12C renal = system: SN12C renal
SK-OV-3 ovarian = system: SK-OV-3 ovarian
MOLT-4 leukemia = system: MOLT-4 leukemia
UO-31 renal = system: UO-31 renal
MDA-MB-231 breast = system: MDA-MB-231 breast
HOP-92 NSCLC = system: HOP-92 NSCLC
OVCAR-4 ovarian = system: OVCAR-4 ovarian
RPMI-8226 leukemia = system: RPMI-8226 leukemia
ACHN renal = system: ACHN renal
T-47D breast = system: T-47D breast
786-0 renal = system: 786-0 renal
MALME-3M melanoma = system: MALME-3M melanoma
UACC-257 melanoma = system: UACC-257 melanoma
A498 renal = system: A498 renal
NCI-H23 lung = system: NCI-H23 lung
M14 melanoma = system: M14 melanoma
SK-MEL-5 melanoma = system: SK-MEL-5 melanoma
CCRF-CEM leukemia = system: CCRF-CEM leukemia
OVCAR-5 ovarian = system: OVCAR-5 ovarian
K-562 leukemia = system: K-562 leukemia
CAKI-1 renal = system: CAKI-1 renal
SF-268 CNS = system: SF-268 CNS
HOP-62 NSCLC = system: HOP-62 NSCLC
A549 NSCLC = system: A549 NSCLC
OVCAR-8 ovarian = system: OVCAR-8 ovarian
SK-MEL-2 melanoma = system: SK-MEL-2 melanoma
HS 578T breast = system: HS 578T breast
HCT-116 colon = system: HCT-116 colon
SF-295 CNS = system: SF-295 CNS
MCF7 breast = system: MCF7 breast
TK-10 renal = system: TK-10 renal
SK-MEL-28 melanoma = system: SK-MEL-28 melanoma
EKVX NSCLC = system: EKVX NSCLC
SNB-19 CNS = system: SNB-19 CNS
U251 CNS = system: U251 CNS
HL-60(TB) leukemia = system: HL-60(TB) leukemia
NCI-H226 lung = system: NCI-H226 lung
KM12 colon = system: KM12 colon
RXF 393 renal = system: RXF 393 renal
UACC-62 melanoma = system: UACC-62 melanoma
PC-3 prostate = system: PC-3 prostate
COLO 205 colon = system: COLO 205 colon
HT29 colon = system: HT29 colon
NCI-H522 lung = system: NCI-H522 lung
IGROV1 ovarian = system: IGROV1 ovarian
DU-145 prostate = system: DU-145 prostate
MDA-MB-435 = system: MDA-MB-435
SNB-75 CNS = system: SNB-75 CNS
NCI-H460 lung = system: NCI-H460 lung
HCC-2998 colon = system: HCC-2998 colon
NCI/ADR-RES ovarian = system: NCI/ADR-RES ovarian
SW-620 colon = system: SW-620 colon
SR leukemia = system: SR leukemia
HCT-15 colon = system: HCT-15 colon

Molecule `N#Cc1cccc(NC(=O)c2cc(-c3ccc(F)cc3F)ccc2O)c1` has a GI50 (SF-539 CNS) of 2.54 µM, a GI50 (SN12C renal) of 1.44 µM and a TGI (SN12C renal) of 6.46 µM. The GI50 (SK-OV-3 ovarian) was 2.35 µM, the TGI (SK-OV-3 ovarian) was 8.88 µM and the GI50 (MOLT-4 leukemia) was 2.55 µM. It also gave a TGI (MOLT-4 leukemia) of 8.6 µM, a GI50 (UO-31 renal) of 1.82 µM and a TGI (UO-31 renal) of 9.03 µM. The GI50 (MDA-MB-231 breast) was 2.12 µM, the TGI (MDA-MB-231 breast) was 5.93 µM and the GI50 (HOP-92 NSCLC) was 0.338 µM. It also gave a TGI (HOP-92 NSCLC) of 1.93 µM, a GI50 (OVCAR-4 ovarian) of 0.899 µM and a TGI (OVCAR-4 ovarian) of 14.2 µM. For the same molecule, the GI50 (RPMI-8226 leukemia) was 0.562 µM, the TGI (RPMI-8226 leukemia) was 3.17 µM and the GI50 (ACHN renal) was 2.65 µM. It also gave a TGI (ACHN renal) of 10.1 µM, a GI50 (T-47D breast) of 0.496 µM and a TGI (T-47D breast) of 6.57 µM. The GI50 (786-0 renal) was 3.06 µM, the TGI (786-0 renal) was 10.7 µM and the GI50 (MALME-3M melanoma) was 1.01 µM. The TGI (MALME-3M melanoma) was 4 µM, the GI50 (UACC-257 melanoma) was 0.893 µM and the TGI (UACC-257 melanoma) was 5.32 µM. The GI50 (A498 renal) was 0.374 µM, the TGI (A498 renal) was 2.12 µM and the GI50 (NCI-H23 lung) was 1.49 µM. The TGI (NCI-H23 lung) was 6.23 µM, the GI50 (M14 melanoma) was 2.25 µM and the TGI (M14 melanoma) was 8.89 µM. It also gave a GI50 (SK-MEL-5 melanoma) of 0.507 µM, a TGI (SK-MEL-5 melanoma) of 1.94 µM and a GI50 (CCRF-CEM leukemia) of 3.25 µM. For the same molecule, the TGI (CCRF-CEM leukemia) was 19.3 µM, the GI50 (OVCAR-5 ovarian) was 3.39 µM and the TGI (OVCAR-5 ovarian) was 30.2 µM. The GI50 (K-562 leukemia) was 1.51 µM, the TGI (K-562 leukemia) was over 100 µM and the GI50 (CAKI-1 renal) was 1.31 µM. The TGI (CAKI-1 renal) was 4.74 µM, the GI50 (SF-268 CNS) was 2.38 µM and the TGI (SF-268 CNS) was 20.7 µM. The GI50 (HOP-62 NSCLC) was 2.39 µM, the TGI (HOP-62 NSCLC) was 7.96 µM and the GI50 (A549 NSCLC) was 3.52 µM. The TGI (A549 NSCLC) was over 100 µM, the GI50 (OVCAR-8 ovarian) was 2.88 µM and the TGI (OVCAR-8 ovarian) was over 100 µM. For the same molecule, the GI50 (SK-MEL-2 melanoma) was 0.768 µM, the TGI (SK-MEL-2 melanoma) was 3.85 µM and the GI50 (HS 578T breast) was 2.02 µM. It also gave a TGI (HS 578T breast) of 7.21 µM, a GI50 (HCT-116 colon) of 1.89 µM and a TGI (HCT-116 colon) of 8.91 µM. For the same molecule, the GI50 (SF-295 CNS) was 1.96 µM, the TGI (SF-295 CNS) was 4.44 µM and the GI50 (MCF7 breast) was 1.87 µM. The TGI (MCF7 breast) was 10.7 µM, the GI50 (TK-10 renal) was 3.49 µM and the TGI (TK-10 renal) was 15.7 µM. For the same molecule, the GI50 (SK-MEL-28 melanoma) was 1.38 µM, the GI50 (EKVX NSCLC) was 2.68 µM and the TGI (EKVX NSCLC) was 9.32 µM. The GI50 (SNB-19 CNS) was 2.37 µM, the TGI (SNB-19 CNS) was 14.3 µM and the GI50 (U251 CNS) was 2.56 µM. The TGI (U251 CNS) was 25.5 µM, the GI50 (HL-60(TB) leukemia) was 1.8 µM and the TGI (HL-60(TB) leukemia) was 5.27 µM. It also gave a GI50 (NCI-H226 lung) of 1.86 µM, a TGI (NCI-H226 lung) of 7.36 µM and a GI50 (KM12 colon) of 2.72 µM. For the same molecule, the TGI (KM12 colon) was 8.24 µM, the GI50 (RXF 393 renal) was 2.25 µM and the TGI (RXF 393 renal) was 6.6 µM. It also gave a GI50 (UACC-62 melanoma) of 0.522 µM, a TGI (UACC-62 melanoma) of 2.7 µM and a GI50 (PC-3 prostate) of 2.89 µM. The TGI (PC-3 prostate) was 17.9 µM, the GI50 (COLO 205 colon) was 11.5 µM and the TGI (COLO 205 colon) was 25.1 µM. The GI50 (HT29 colon) was 5.71 µM, the TGI (HT29 colon) was over 100 µM and the GI50 (NCI-H522 lung) was 0.642 µM. The TGI (NCI-H522 lung) was 10.9 µM, the GI50 (IGROV1 ovarian) was 2.6 µM and the TGI (IGROV1 ovarian) was over 100 µM. It also gave a GI50 (DU-145 prostate) of 2.63 µM, a TGI (DU-145 prostate) of over 100 µM and a GI50 (MDA-MB-435) of 1.37 µM. For the same molecule, the TGI (MDA-MB-435) was 6.32 µM, the GI50 (SNB-75 CNS) was 1.29 µM and the TGI (SNB-75 CNS) was 3.88 µM. The GI50 (NCI-H460 lung) was 1.42 µM, the TGI (NCI-H460 lung) was 13.3 µM and the GI50 (HCC-2998 colon) was 3.22 µM. For the same molecule, the TGI (HCC-2998 colon) was 12.4 µM, the GI50 (NCI/ADR-RES ovarian) was 2.11 µM and the TGI (NCI/ADR-RES ovarian) was 9.92 µM. The GI50 (SW-620 colon) was 2.99 µM, the TGI (SW-620 colon) was 17.1 µM and the GI50 (SR leukemia) was 2.91 µM. It also gave a TGI (SR leukemia) of 23.2 µM, a GI50 (HCT-15 colon) of 1.9 µM and a TGI (HCT-15 colon) of 6.93 µM.
